{"source": "patent US20200165312A1", "about": "“COSMETIC COMPOSITION FOR IMPROVING SKIN CONDITIONS COMPRISING FUSION PROTEIN INCLUDING SKIN PENETRATION ENHANCING PEPTIDE” (LG HOUSEHOLD & HEALTH CARE LTD., priority 2017, published 2020)", "key": {"[1]": {"test_system": "dermal papilla cells", "assay": "Hair follicle stem cell proliferation: dermal papilla cells, Cell Counter Kit-8", "format": "cell-based", "settings": "for Proliferation (%): control = 100", "description": "(§1) Specifically, dermal papilla cells were inoculated onto a 96-well plate and cultured for 24 hours to obtain cultures at a density of 6,000 cells per well. The cultures were washed with PBS and cultured in a serum-free DMEM medium for one day. The cells were washed with PBS again and cultured in a serum-free DMEM medium supplemented with 1 ng/mL T-PDGFa or PDGFa for one day. The cultures were obtained therefrom and a difference between proliferated amounts of cells was quantitively analyzed using the Cell Counter Kit-8 (Dojindo). Here, dermal papilla cells cultured in a serum-free DMEM medium without T-PDGFa or PDGFa were used as a control (Table 6).\n(§2) Specifically, dermal papilla cells were inoculated onto a 96-well plate and cultured for 24 hours to obtain cultures at a density of 6,000 cells per well. The cultures were washed with PBS and cultured in a serum-free DMEM medium for one day. […] The cultures were obtained therefrom and a difference between proliferated amounts of cells was quantitively analyzed using the Cell Counter Kit-8 (Dojindo).\nas §1, with “T-IGF-1” for “T-PDGFa”, “IGF-1” for “PDGFa”, “15).” for “6).”\nas §1, with “10” for “1”, “T-KGF” for “T-PDGFa”, “KGF” for “PDGFa”, “19).” for “6).”\nas §1, with “10” for “1”, “T-Tβ4” for “T-PDGFa”, “Tβ4” for “PDGFa”, “23).” for “6).”"}, "[2]": {"test_system": "skin keratinocytes", "assay": "Keratinocyte growth (skin barrier strengthening), Cell Counter Kit-8", "format": "cell-based", "settings": "100 ng/mL T-IGF-1 or IGF-1, one day; control = 100", "description": "(§3) Specifically, skin keratinocytes were cultured in a 96-well plate for one day to obtain cultures at a density of 6,000 cells per well. The cultures were washed with PBS and cultured in a serum-free DMEM medium for one day. The cells were washed with PBS again and cultured in a serum-free DMEM medium supplemented with 100 ng/mL T-IGF-1 or IGF-1 for one day. The cultures were obtained therefrom and a difference between proliferated amounts of cells was quantitively analyzed using the Cell Counter Kit-8 (Dojindo). Here, skin keratinocytes cultured in a serum-free DMEM medium without T-IGF-1 or IGF-1 were used as a control (Table 14).\nSpecifically, skin keratinocytes were cultured in a 96-well plate for 24 hours to obtain cultures at a density of 6,000 cells per well.\nas §3, with “The” for “Specifically, skin keratinocytes were cultured in a 96-well plate for one day to obtain cultures at a density of 6,000 cells per well. The”, “T-KGF” for “T-IGF-1”, “KGF” for “IGF-1”, “18).” for “14).”"}, "[3]": {"test_system": "dermal fibroblasts", "assay": "Hyaluronic acid (HA) production in dermal fibroblasts (ELISA)", "format": "cell-based, human", "settings": "10 ng/mL T-PDGFa or PDGFa, two days; control = 100", "description": "(§4) Specifically, dermal fibroblasts were inoculated onto a 24-well plate and cultured for 24 hours to obtain cultures having a saturation degree of 70 to 80%. The cultures were washed with PBS and cultured in a serum-free DMEM medium including 10 ng/mL T-PDGFa or PDGFa for two days. A supernatant was obtained therefrom and the amount of hyaluronic acid (HA) produced and released in the culture solution was quantitively analyzed using an ELISA kit (R&D Systems) (Table 5).\nas §4, with “The cultures were washed with PBS and cultured in a serum-free DMEM medium including 10 ng/mL T-PDGFa or PDGFa for two days.” left out, “9).” for “5).”"}, "[4]": {"test_system": "dermal fibroblasts", "assay": "Collagen production in dermal fibroblasts (ELISA)", "format": "cell-based, human", "settings": "10 ng/mL, serum-free DMEM, two days; control = 100", "description": "as §4, with “collagen” for “hyaluronic acid (HA)”, “4).” for “5).”"}, "[5]": {"test_system": "human umbilical vein endothelial cells", "assay": "Endothelial cell proliferation, Cell Counter Kit-8", "format": "cell-based", "settings": "for Proliferation (%): 100 ng/mL T-Tβ4 or Tβ4, serum-free M199, one day, control = 100", "description": "as §2, with “human umbilical vein endothelial” for “dermal papilla”, “5,000” for “6,000”, “M199” for “DMEM”, “16 hours.” for “one day.”\nSpecifically, human umbilical vein endothelial cells were inoculated onto a 96-well plate and cultured for 24 hours to obtain cultures at a density of 5,000 cells per well. The cultures were washed with PBS and cultured in a serum-free M199 medium for 16 hours. The cells were washed with PBS again and cultured in a serum-free M199 medium supplemented with 100 ng/mL T-Tβ4 or Tβ4 for one day. The cultures were obtained therefrom and a difference between proliferated amounts of cells was quantitively analyzed using the Cell Counter Kit-8 (Dojindo). Here, human umbilical vein endothelial cells cultured in a serum-free M199 medium without T-Tβ4 or Tβ4 were used as a control (Table 22)."}}, "data": [{"substance": "IGF-1: insulin-like growth factor-1 having an amino acid sequence of SEQ ID NO: 41", "values": [{"measurement": "Proliferation (%)", "setting": "[1]; 1 ng/mL T-IGF-1 or IGF-1, one day", "value": "440 ± 45", "unit": "%"}, {"measurement": "Production (%) (keratinocyte growth)", "setting": "[2]", "value": "250 ± 20", "unit": "%"}]}, {"substance": "PDGFa: platelet-derived growth factor subunit a having an amino acid sequence of SEQ ID NO: 35", "values": [{"measurement": "Proliferation (%)", "setting": "[1]; 1 ng/mL T-PDGFa or PDGFa, one day", "value": "1030 ± 19", "unit": "%"}, {"measurement": "Production (%) of hyaluronic acid (HA)", "setting": "[3]", "value": "897 ± 30", "unit": "%"}, {"measurement": "Production (%) of collagen", "setting": "[4]", "value": "264 ± 17", "unit": "%"}]}, {"substance": "T-Tβ4: SEQ ID NO: 1 peptide C-terminal linked to N-terminal of Tβ4 via GG linker (NGSLNTHLAPILGGSDKPDMAEIEKFDKSKLKKTETQEKNPLPSKETIEQEKQAGES; Synthetic Fusion protein of T-T beta 4)", "values": [{"measurement": "Proliferation (%)", "setting": "[1]; 10 ng/mL T-Tβ4 or Tβ4, one day", "value": "220 ± 16", "unit": "%"}, {"measurement": "cell proliferation effect compared with the unfused protein", "setting": "[1]; dermal papilla cells", "value": "same level"}, {"measurement": "Proliferation (%)", "setting": "[5]", "value": "165 ± 17", "unit": "%"}, {"measurement": "cell proliferation effect compared with the unfused protein", "setting": "[5]; human umbilical vein endothelial cells, 100 ng/mL", "value": "same level"}]}, {"substance": "Tβ4: thymosin beta 4 having an amino acid sequence of SEQ ID NO: 47", "values": [{"measurement": "Proliferation (%)", "setting": "[1]; 10 ng/mL T-Tβ4 or Tβ4, one day", "value": "260 ± 20", "unit": "%"}, {"measurement": "Proliferation (%)", "setting": "[5]", "value": "180 ± 8", "unit": "%"}]}]}
